Assay results published in patent US20070249599A1, “Novel Chemical Compounds” (priority 2004, published 2007).

Biological target: T1, hYAK3 (Homo sapiens, UniProt O43781)
T1 construct: GST (N); His6 (C); made in house; host or cells: baculovirus expression system in Sf9 cells
T1 sequence (O43781 124-526): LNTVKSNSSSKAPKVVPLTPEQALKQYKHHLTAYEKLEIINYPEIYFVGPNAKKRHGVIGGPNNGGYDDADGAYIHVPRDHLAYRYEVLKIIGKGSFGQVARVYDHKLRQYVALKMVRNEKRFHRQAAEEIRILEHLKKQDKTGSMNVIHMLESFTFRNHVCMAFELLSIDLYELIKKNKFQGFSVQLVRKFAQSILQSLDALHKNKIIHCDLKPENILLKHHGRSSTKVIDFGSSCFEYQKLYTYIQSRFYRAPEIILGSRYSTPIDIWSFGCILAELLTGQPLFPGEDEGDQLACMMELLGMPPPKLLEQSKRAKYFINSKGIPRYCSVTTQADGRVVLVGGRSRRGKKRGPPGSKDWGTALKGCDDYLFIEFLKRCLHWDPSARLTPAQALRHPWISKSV
Experiment: YAK3 Scintillation Proximity Assay using Ser164 of myelin basic protein as the phosphoacceptor (kinase assay of purified hYAK3)
Type: biochemical
Details: purified GST-hYak3-His6 (aa 124-526), 4 nM; 0.001 mM ATP; 4 μM Ser164 peptide; 2 hours at room temperature; pIC50 = −log10(IC50)
Procedure: Substrate phosphorylation assays were carried out as follows:
YAK3 Scintillation Proximity Assays Using Ser164 of Myelin Basic Protein as the Phosphoacceptor
The source of Ser164 substrate peptide The biotinylated Ser164, S164A peptide(Biotinyl-LGGRDSRAGS*PMARR-OH), sequence derived from the C-terminus of bovine myelin basic protein (MBP) with Ser162 substituted as Ala 162, was purchased from California Peptide Research Inc. (Napa, Calif.), and its purity was determined by HPLC. Phosphorylation occurs at position 164 (marked S* above). The calculated molecular mass of the peptide was 2166 dalton. Solid sample was dissolved at 10 mM in DMSO, aliquoted, and stored at −20° C. until use.
hYAK3: Glutathione-S-Transferase (GST)-hYak3-His6 containing amino acid residues 124-526 of human YAK3 (aa 124-526 of SEQ ID NO 2. in U.S. Pat. No. 6,323,318) was purified from baculovirus expression system in Sf9 cells using Glutathione Sepharose 4B column chromatography followed by Ni-NTA-Agarose column chromatography. Purity greater than 65% typically was achieved. Samples, in 50 mM Tris, 150 mM NaCl, 10% glycerol, 0.1% Triton, 250 mM imidazole, 10 mM β-mercapto ethanol, pH 8.0. were stored at −80° C. until use.
Kinase assay of purified hYAK3: Assays were performed in 96 well (Costar, Catalog No. 3789) or 384 well plates (Costar, Catalog No. 3705). Reaction (in 20, 25, or 40 μl volume) mix contained in final concentrations 25 mM Hepes buffer, pH 7.4; 10 mM MgCl2; 10 mM β-mercapto ethanol; 0.0025% Tween-20; 0.001 mM ATP, 0.1 μCi of [γ-^33P]ATP; purified hYAK3 (7-14 ng/assay; 4 nM final); and 4 μM Ser164 peptide. Compounds, titrated in DMSO, were evaluated at concentrations ranging from 50 μM to 0.5 nM. […] Reactions were incubated for 2 hours at room temperature and were stopped by a 75 ul addition of […] Streptavidin Scintillation Proximity beads (Amersham Pharmacia Biotech, Catalog No. RPNQ 0007) in PBS, pH 7.4, 10 mM EDTA, 0.1% Triton X-100, 1 mM ATP. Under the assay conditions defined above, the Km(apparent) for ATP was determined to be 7.2+/−2.4 μM.

IC50 [nM] | Compound
102 to 1000 | Cn1c(C(C)(C)C)nc2ccc(/C=C3\SC(Nc4ccccc4Cl)=NC3=O)cc21 [Example 53, (5Z)-2-[(2-Chlorophenyl)amino]-5-{[2-(1,1-dimethylethyl)-1-methyl-1H-benzimidazol-6-yl]methylidene}-1,3-thiazol-4(5H)-one]
10.2 to 100 | CN(C)CCn1nnc2ccc(/C=C3\SC(Nc4c(Cl)cccc4Cl)=NC3=O)cc21 [Example 58, (5Z)-2-[(2,6-dichlorophenyl)amino]-5-({1-[2-(dimethylamino)ethyl]-1H-1,2,3-benzotriazol-6-yl}methylidene)-1,3-thiazol-4(5H)-one]
1.02 to 10 | Cc1nc2ccc(C=C3SC(=Nc4c(Cl)cccc4Cl)NC3=O)cc2o1 [Example 59, 2-(2,6-Dichloro-phenylimino)-5-(2-methyl-benzooxazol-6-yl-methylene)-thiazolidin-4-one]
